Experimental data: patent publication US7795203B2, “Method for topical treatment of eye disease and composition and device for said treatment” (priority 2002, dated 2010)
Where a SMILES comes first, the peptide text is derived from it.

Tests used:
carnosinase = target: T1, carnosinase (Homo sapiens, UniProt Q96KN2); assay: Hydrolysis with carnosinase; assay type: biochemical; conditions: substrate of carnosinase similar to L-carnosine
T1 sequence (Q96KN2 27-507 limits assumed): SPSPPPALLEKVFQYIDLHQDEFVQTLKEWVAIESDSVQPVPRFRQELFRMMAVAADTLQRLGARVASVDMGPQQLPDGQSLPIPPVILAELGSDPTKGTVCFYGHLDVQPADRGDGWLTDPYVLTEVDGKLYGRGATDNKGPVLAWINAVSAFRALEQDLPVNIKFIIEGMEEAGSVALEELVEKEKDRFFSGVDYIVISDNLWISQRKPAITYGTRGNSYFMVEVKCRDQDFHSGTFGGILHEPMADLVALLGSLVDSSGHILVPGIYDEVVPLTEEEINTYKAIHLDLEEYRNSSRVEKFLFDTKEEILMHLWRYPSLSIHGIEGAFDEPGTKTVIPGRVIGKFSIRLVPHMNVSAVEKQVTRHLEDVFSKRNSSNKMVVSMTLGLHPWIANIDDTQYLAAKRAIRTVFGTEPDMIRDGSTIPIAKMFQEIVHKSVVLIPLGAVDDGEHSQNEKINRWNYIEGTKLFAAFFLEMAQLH
Method: (§1) Yet another advantage of the present invention is that systemic absorption of N-acetylcarnosine and/or carnosine is increased through the microvessels of the conjunctival and lid mucosal tissues because the cellulose compound increases the time of persistence of N-acetylcarnosine in the conjunctival sac. More particularly, N-acetylcarnosine appears in blood plasma within 30 min of its topical administration to the eye with carboxymethylcellulose. The half time of decay of N-acetylcarnosine in plasma is about 150 min or more according to pharmacokinetic studies. […] Accordingly, once in blood plasma N-acetylcarnosine can act as a competititve saturating inhibitor of carnosinase, which is very helpful to protect L-carnosine from hydrolysis during concomitant oral administration of L-carnosine as an anti-aging therapy.

[1] = Pharmacokinetic studies: N-acetylcarnosine in blood plasma after topical administration to the eye; assay type: in vivo
Method: as §1

[2] = Clinical study of 0.1% N-Acetyl-RGDS in patients with POAG and OH (IOP, tonography); assay type: in vivo, human; conditions: 0.1% topically twice daily
Source text: Without intending to be bound by theory, the inventor currently believes that RGD-containing peptides, and/or their pharmacologically acceptable salts, are efficacious for the therapeutical and surgical treatment of primary open-angle glaucoma (POAG) and ocular hypertension (OH). […] The effect of 0.1% N-Acetyl-RGDS on outflow facility, as studied by tonography, was striking providing a significant increase to 26-33%. The cleansing activity of Acetyl-RGDS is accompanied by increase in trabecular outflow facility which is different from that of other drugs (pilocarpine) previously shown in patients with POAG and OH. The clinical significance and mechanism of IOP reduction by N-Acetyl-RGDS are related with the cleansing effect of N-Acetyl-RGDS on extracellular matrix proteins and plaque material in trabecular meshwork to reduce the outflow resistance in the eyes of patients with POAG and OH. It is believed N-Acetyl-RGDS is also suitable to treat secondary cataracts and vitreoproliferative disorders.

| half time of decay in plasma ([1]; according to pharmacokinetic studies) | time to appearance in blood plasma ([1]; topical administration to the eye with carboxymethylcellulose) | Structure (SMILES) | resistance to hydrolysis with carnosinase (carnosinase) | tolerability [2] |
| --- | --- | --- | --- | --- |
| ≥ 150 min | ≤ 30 min | CC(=O)NCCC(=O)N[C@@H](Cc1c[nH]cn1)C(=O)O [N-acetylcarnosine] | highly resistant to hydrolysis with carnosinase |  |
|  |  | CC(=O)N[C@@H](CCCNC(=N)N)C(=O)NCC(=O)N[C@@H](CC(=O)O)C(=O)N[C@@H](CO)C(=O)O [N-Acetyl-RGDS, N-acetyl-Arg-Gly-Asp-Ser peptide] (Ac-RGDS-OH) |  | well tolerated |
